Measurements: article PMC7346113, “Screening of Natural Stilbene Oligomers from Vitis vinifera for Anticancer Activity on Human Hepatocellular Carcinoma Cells” (Antioxidants, 2020)

Legend:
Type in all cases: cell-based, human
[1] = tested on: Bax and Bcl-2 expression in HepG2 cells; assay: Western blot analysis of Bax and Bcl-2 expression; details: 24 h
Experimental: HepG2 cells were seeded in Petri dishes, incubated for 24 h and then treated with 5 and 10 µM R2-viniferin. Following 24 h of treatment, the cells were lysed in ice for 30 min with lysis buffer (20 mM HEPES pH 7.5, 1 mM NaF, 10 mM EGTA, 40 mM β-glycerophosphate, 1% NP-40, 2.5 mM MgCl2, 2 mM orthovanadate, and 1 mM DTT) to which 10 μL/mL of a protease inhibitor cocktail (Sigma-Aldrich, St Louis, USA) was added just before use. Cellular fragments were removed by centrifugation at 12,000× g for 10 min at 4 °C, and total protein concentration was determined by Bradford assay. The cellular protein extracts were boiled at 95 °C for 5 min in Laemmli buffer and separated by sodium dodecyl sulfate–polyacrylamide gel electrophoresis in 15% polyacrylamide gels. Proteins were transferred onto polyvinylidene difluoride (PVDF) membranes by electro-blotting with constant amperage (1 mA/cm^2) for 2 h in a wet chamber. After blocking for 1 h in 5% bovine serum albumin (BSA) Tris-buffered saline containing Tween 20 at room temperature, membranes were incubated overnight at 4 °C with antibodies to Bax (Santa Cruz Biotechnology, 1:500), Bcl-2 (Santa Cruz Biotechnology, 1:500) and glyceraldehyde-3-phosphate dehydrogenase (GAPDH, Abcam, 1:2000). After washing, membranes were probed with their corresponding secondary antibody conjugated to horseradish peroxidase for 1 h at room temperature. Specific proteins were detected using the enhanced chemiluminescence (ECL) substrate kit (Clarity Western ECL substrate, Bio-Rad, Hercules, California, USA) and the blots were imaged with the C-DiGit LI-COR blot scanner (Bonsai Advanced technologies S.L. Madrid, Spain). Intensities of target protein bands were determined by densitometry and normalized to the intensity of the loading control GAPDH protein.

[2] = tested on: mitochondrial O2- in HepG2; assay: Mitochondrial O2- levels, MitoSOX probe, flow cytometry; details: HepG2, 5 and 10 µM, any of the doses or times assayed
Experimental: The mitochondrial superoxide anion (O2^−) levels were measured using MitoSOX™Red reagent (Molecular Probes, Eugene, OR, USA), which permeates living cells where it selectively targets mitochondria and is oxidized by superoxide.
HepG2 cells were cultured in a 6-well cell culture plate at a density of 2 × 10^5 cells per well 24 h before starting the treatment with R2-viniferin. The medium was renewed and cells were incubated with R2-viniferin as described above. After treatment, cells were washed and incubated with 20 μM H2DCF-DA or 4 μM MitoSOX™ for 30 min at 37 °C in the dark. The probe solution was then withdrawn and, after washing with PBS, the cells were trypsinized. The fluorescence intensity from living cells was measured by flow cytometry (DCF λex = 485/20 and λem = 528/20, MitoSOX λex = 485/20 and λem = 620/20) in a Beckman Coulter Gallios Flow cytometer in the General Research Services SGIker of the UPV/EHU. At least 10,000 events were detected. Data obtained from flow cytometry were analyzed using Summit 4.3 software (Dako, Hovedstaden, Denmark). Intracellular ROS and mitochondrial O2^− were expressed as the percentage of the fluorescence intensity in control cells at the same time of incubation.

Hep3B = assay: Cell viability, crystal violet assay, Hep3B; details: mean ± standard error
From the text: The human hepatoma cell line HepG2 was obtained from the American Tissue Culture Collection (ATCC, Manassas, VA, USA). The human hepatoma cell line Hep3B was obtained from the European Collection of Authenticated Cell Cultures (ECACC, Porton Down, Salisbury, Wiltshire, UK). HH4 non-transformed human hepatocyte cell line (kindly provided by Dr. I. Fabregat, Molecular Oncology, Bellvitge Biomedical Research Institute, Spain) was established as described.
HepG2 and Hep3B cell lines were maintained in Eagle’s Minimum Essential Medium and HH4 cell line was grown in Ham´s F12 Nutrient Mixture (Sigma-Aldrich, St Louis, MO, USA). Both culture media were supplemented with 10% heat inactivated fetal bovine serum, 2 mM L-glutamine and antibiotics (0.1 mg/mL streptomycin and 100 U/mL penicillin) (Sigma-Aldrich, St Louis, MO, USA). Cell cultures were grown in an incubator at 37 °C with 5% CO2 atmosphere. After reaching approximately 80% of confluence, cells were detached in a solution of 0.1% trypsin and 0.04% EDTA and plated as required for further experiments.
Cell lines were seeded into 96-well plates at 5 × 10^3 (HepG2) and 3 × 10^3 (Hep3B and HH4) cells/well 24 h before treatment. Increasing concentrations of the monomer trans-resveratrol, the dimers ampelopsin A and trans-ε-viniferin and the tetramers isohopeaphenol, hopeaphenol, R2-viniferin and R-viniferin were then added and cells were incubated for 24, 48, and 72 h. Stilbenes were dissolved in dimethyl sulfoxide (DMSO), Sigma-Aldrich, St Louis, MO, USA) at a final concentration of 0.01%. The same amount of DMSO was added to control cells. After treatment, the cell viability was determined using the crystal violet assay. The absorbance was recorded at 590 nm in a Synergy HT microplate reader (BioTek, Winooski, VT, USA). Cell viability was calculated as the percentage of viable cells treated with stilbene versus untreated control cells using the following equation: Cell viability (%) = [OD (Treatment) − OD (Blank)]/[OD (Control) − OD (Blank)] × 100. The cytotoxic effect of stilbenes was determined by calculating IC50 values using non-linear regression analysis (GraphPad Prism 6, San Diego, CA, USA).
The statistical package SPSS 19.0 (SPSS Inc. Chicago, IL, USA) was used for data analysis. The results were expressed as mean ± standard error (SE) from at least three experiments. Statistical significance for the differences of the means was estimated by parametric Student’s t-test. Differences between means were considered statistically significant for p < 0.05. IC50 values were derived from fitting the data to a sigmoidal dose-response curve with a three-parameter logistic model using Graph Pad Prism 6.

Oc1ccc([C@H]2c3c(O)cc(O)cc3[C@H]3c4c(cc(O)cc4[C@@H]2c2cc(/C=C/c4cc(O)cc5c4[C@H](c4cc(O)cc(O)c4)[C@@H](c4ccc(O)cc4)O5)ccc2O)O[C@@H]3c2ccc(O)cc2)cc1 [R2-Viniferin]
Bax/Bcl-2 ratio increase over control ([1]; HepG2, 5 µM): 39%
Bax/Bcl-2 ratio increase over control ([1]; HepG2, 10 µM): 123%
Expression of anti-apoptotic Bcl-2 proteins ([1]; HepG2, 5 and 10 µM): downregulated
Expression of proapoptotic Bax protein ([1]; HepG2, 5 and 10 µM): upregulated
Effect on mitochondrial O2- [2]: no significant effect
IC50 (Hep3B; 72 h): 47.8 ± 2.8 µM
IC50 (Hep3B; Homo sapiens, Hep3B, 24 h): > 200 µM
IC50 (Hep3B; Homo sapiens, Hep3B, 48 h): 43.9 ± 3.6 µM
IC50 (Hep3B; Homo sapiens, Hep3B, 72 h): 48 µM
